Measurements from patent US20090311237A1, “Combination therapy using a soluble hyaluronidase and a bisphosphonate” (priority 2008, published 2009).
Like-named read-outs stand apart in the source and are kept apart here.

Test: Pharmacokinetics of ZA in pig serum after IV or SC infusion with or without rHuPH20 (LC-MS-MS, non-compartmental analysis)
Format: in vivo
Protocol: A pharmacokinetic study of zoledronic acid (ZA) co-administered with rHuPH20 in female Yorkshire swines was conducted. The primary objective of the study was to determine the bioavailability of zoledronic acid dosed via subcutaneous (SC) co-administration with human recombinant hyaluronidase PH20 (rHuPH20) and to compare the overall exposure to an equivalent IV dose.
Animals in Study Group 1 were dosed with 0.15 mg/kg ZA given via a 20-minute IV infusion. Animals in Study Groups 2 and 3 were dosed subcutaneously (SC) with 0.15 mg/kg ZA without and with rHuPH20, respectively, in different SC delivery volumes.
Following ZA dose administration, serial blood samples were collected via vascular access ports (VAPs) for serum preparation and determination of ZA concentrations. Blood collection times were at 1, 3, 5, 10, 15, 20, 30, 45, and 60 minutes, and at 1.5, 2, 3, 4, 6, 8, 10, 24, 48, and 72 hours post dose. Urine samples were also collected to compare excretion characteristics between IV and SC routes of administration. Collection times for urine were at 15 minutes before dosing (−15 min.), continuously from dose initiation to 2 hours post dose, and at 4, 6, 8, and 24 hours post dose thereafter.
Serum concentration of ZA was determined using a qualified LC-MS-MS assay after derivatization with diazomethane (Zhu, L S et al. (2006) Rapid Commun. Mass Spectrom. 20: 3421-3426; “Qualification Data of An LC-MS/MS Method for the Determination of Zoledronate in Porcine Serum”, MDS Pharma Services Study No. AA43671-01, Report Date 14 Sep. 2007). The assay range was from 2.0 to 400 ng/mL with a lower limit of quantitation (LLOQ) at 2.0 ng/mL. Urine concentration of ZA was determined by a similar well qualified LC-MS-MS method (“Qualification Data of An LC-MS/MS Method for the Determination of Zoledronate in Porcine Urine”, MDS Pharma Services Study No. AA43671-02, Report Date 14 Sep. 2007) with an assay LLOQ at 10 ng/mL.
Pharmacokinetic (PK) analyses of ZA serum concentration versus time data were conducted using WinNonlin v5.1 (Pharsight, Mountain View, Calif.). Non-compartmental analysis was used for derivation of primary and secondary pharmacokinetic (PK) parameters. AUC, Cmax, and Tmax were compared between dose routes, between co-administration with rHuPH20, and with dose of rHuPH20.

[1] = female, Yorkshire, pig, serum, subcutaneous, […], pig 66, Study Group 3, SC, ZA […], rHuPH20 10000 U/mL, 100 mL over 16 min, read-out: Zoledronic Acid Serum Concentration
[2] = female, Yorkshire, pig, serum, subcutaneous, […], pig 68, Study Group 3, SC, ZA […], rHuPH20 10000 U/mL, 10 mL over 1.6 min, read-out: Zoledronic Acid Serum Concentration
[3] = female, Yorkshire, pig, serum, subcutaneous, pig 56, Study Group 3, SC, ZA […], rHuPH20 10000 U/mL, 25 mL over 4 min, read-out: Zoledronic Acid Serum Concentration
[4] = female, Yorkshire, pig, serum, subcutaneous, pig 58, Study Group 3, SC, ZA […], rHuPH20 10000 U/mL, 50 mL over 8 min, read-out: Zoledronic Acid Serum Concentration
[5] = female, Yorkshire, pig, serum, subcutaneous, pig 68, Study Group 3, SC, ZA […], rHuPH20 10000 U/mL, 10 mL over 1.6 min, read-out: Zoledronic Acid Serum Concentration

## O=P(O)(O)C(O)(Cn1ccnc1)P(=O)(O)O [ZA, 1-hydroxy-2-(1H-imidazol-1-yl)ethylidene-1,1-bisphosphonic acid]
female, Yorkshire, pig, serum, subcutaneous, […], pig 64, Study Group 3, SC, ZA […], rHuPH20 10000 U/mL, 100 mL over 16 min, read-out: Zoledronic Acid Serum Concentration
  concentration at 4 h: 19 ng/mL
female, Yorkshire, pig, serum, subcutaneous, […], pig 64, Study Group 3, SC, ZA […], rHuPH20 10000 U/mL, 100 mL over 16 min, time 6 h, read-out: Zoledronic Acid Serum Concentration
  concentration at 6 h: 5.75 ng/mL
[1]
  concentration at 0.05 h: 12 ng/mL
  concentration at 0.333 h: 103 ng/mL
  concentration at 0.5 h: 78.2 ng/mL
  concentration at 1 h: 53.3 ng/mL
  concentration at 2 h: 23.2 ng/mL
  concentration at 3 h: 11.4 ng/mL
  concentration at 4 h: 6.39 ng/mL
[2]
  concentration at 0.05 h: 342 ng/mL
  concentration at 0.333 h: 201 ng/mL
  concentration at 0.5 h: 175 ng/mL
[3]
  concentration at 0.05 h: 101 ng/mL
  concentration at 0.333 h: 235 ng/mL
  concentration at 0.5 h: 194 ng/mL
  concentration at 1 h: 128 ng/mL
  concentration at 2 h: 59.7 ng/mL
  concentration at 3 h: 31.2 ng/mL
  concentration at 4 h: 17.6 ng/mL
female, Yorkshire, pig, serum, subcutaneous, pig 56, Study Group 3, SC, ZA […], rHuPH20 10000 U/mL, 25 mL over 4 min, time 5 h, read-out: Zoledronic Acid Serum Concentration
  concentration at 5 h: 19.6 ng/mL
female, Yorkshire, pig, serum, subcutaneous, pig 56, Study Group 3, SC, ZA […], rHuPH20 10000 U/mL, 25 mL over 4 min, time 6 h, read-out: Zoledronic Acid Serum Concentration
  concentration at 6 h: 7.21 ng/mL
female, Yorkshire, pig, serum, subcutaneous, pig 56, Study Group 3, SC, ZA […], rHuPH20 10000 U/mL, 25 mL over 4 min, time 8 h, read-out: Zoledronic Acid Serum Concentration
  concentration at 8 h: 2.28 ng/mL
[4]
  concentration at 0.05 h: 73.8 ng/mL
  concentration at 0.333 h: 270 ng/mL
  concentration at 0.5 h: 177 ng/mL
  concentration at 1 h: 107 ng/mL
[5]
  concentration at 1 h: 90.6 ng/mL
  concentration at 2 h: 43.2 ng/mL
  concentration at 3 h: 17 ng/mL
  concentration at 4 h: 7.09 ng/mL
female, Yorkshire, pig, serum, subcutaneous, pig 68, Study Group 3, SC, ZA […], rHuPH20 10000 U/mL, 10 mL over 1.6 min, time 6 h, read-out: Zoledronic Acid Serum Concentration
  concentration at 6 h: 2.68 ng/mL
female, Yorkshire, pig, serum, subcutaneous, pig 68, Study Group 3, SC, ZA […], rHuPH20 10000 U/mL, 10 mL over 1.6 min, time […], read-out: Zoledronic Acid Serum Concentration
  concentration at […]: 50.5 ng/mL
Pig 56, Study Group 3, SC, ZA […], rHuPH20 10000 U/mL, 25 mL over 4 min, time 10 h
  Zoledronic Acid Serum Concentration: BLQ^a (below assay limit of quantification (2.0 ng/mL))
Pig 56, Study Group 3, SC, ZA […], rHuPH20 10000 U/mL, 25 mL over 4 min, time 24 h
  Zoledronic Acid Serum Concentration: BLQ (below assay limit of quantification (2.0 ng/mL))
Pig 56, Study Group 3, SC, ZA […], rHuPH20 10000 U/mL, 25 mL over 4 min, time 48 h
  Zoledronic Acid Serum Concentration: BLQ (below assay limit of quantification (2.0 ng/mL))
Pig 56, Study Group 3, SC, ZA […], rHuPH20 10000 U/mL, 25 mL over 4 min, time 72 h
  Zoledronic Acid Serum Concentration: BLQ (below assay limit of quantification (2.0 ng/mL))
Pig 56, Study Group 3, SC, ZA […], rHuPH20 10000 U/mL, 25 mL over 4 min, time […]
  Zoledronic Acid Serum Concentration: BLQ (below assay limit of quantification (2.0 ng/mL))
Pig 58, Study Group 3, SC, ZA […], rHuPH20 10000 U/mL, 50 mL over 8 min, time 8 h
  Zoledronic Acid Serum Concentration: BLQ (below assay limit of quantification (2.0 ng/mL))
Pig 58, Study Group 3, SC, ZA […], rHuPH20 10000 U/mL, 50 mL over 8 min, time 10 h
  Zoledronic Acid Serum Concentration: BLQ (below assay limit of quantification (2.0 ng/mL))
Pig 58, Study Group 3, SC, ZA […], rHuPH20 10000 U/mL, 50 mL over 8 min, time 24 h
  Zoledronic Acid Serum Concentration: BLQ (below assay limit of quantification (2.0 ng/mL))
Pig 58, Study Group 3, SC, ZA […], rHuPH20 10000 U/mL, 50 mL over 8 min, time 48 h
  Zoledronic Acid Serum Concentration: BLQ (below assay limit of quantification (2.0 ng/mL))
Pig 58, Study Group 3, SC, ZA […], rHuPH20 10000 U/mL, 50 mL over 8 min, time 72 h
  Zoledronic Acid Serum Concentration: BLQ (below assay limit of quantification (2.0 ng/mL))
Pig 58, Study Group 3, SC, ZA […], rHuPH20 10000 U/mL, 50 mL over 8 min, time […]
  Zoledronic Acid Serum Concentration: BLQ (below assay limit of quantification (2.0 ng/mL))
Pig 64, Study Group 3, SC, ZA […], rHuPH20 10000 U/mL, 100 mL over 16 min, time 8 h
  Zoledronic Acid Serum Concentration: BLQ (below assay limit of quantification (2.0 ng/mL))
Pig 64, Study Group 3, SC, ZA […], rHuPH20 10000 U/mL, 100 mL over 16 min, time 10 h
  Zoledronic Acid Serum Concentration: BLQ (below assay limit of quantification (2.0 ng/mL))
Pig 64, Study Group 3, SC, ZA […], rHuPH20 10000 U/mL, 100 mL over 16 min, time 24 h
  Zoledronic Acid Serum Concentration: BLQ (below assay limit of quantification (2.0 ng/mL))
Pig 64, Study Group 3, SC, ZA […], rHuPH20 10000 U/mL, 100 mL over 16 min, time 48 h
  Zoledronic Acid Serum Concentration: BLQ (below assay limit of quantification (2.0 ng/mL))
Pig 64, Study Group 3, SC, ZA […], rHuPH20 10000 U/mL, 100 mL over 16 min, time 72 h
  Zoledronic Acid Serum Concentration: BLQ (below assay limit of quantification (2.0 ng/mL))
Pig 64, Study Group 3, SC, ZA […], rHuPH20 10000 U/mL, 100 mL over 16 min, time […]
  Zoledronic Acid Serum Concentration: BLQ (below assay limit of quantification (2.0 ng/mL))
Pig 66, Study Group 3, SC, ZA […], rHuPH20 10000 U/mL, 100 mL over 16 min, time 6 h
  Zoledronic Acid Serum Concentration: BLQ (below assay limit of quantification (2.0 ng/mL))
Pig 66, Study Group 3, SC, ZA […], rHuPH20 10000 U/mL, 100 mL over 16 min, time 8 h
  Zoledronic Acid Serum Concentration: BLQ (below assay limit of quantification (2.0 ng/mL))
Pig 66, Study Group 3, SC, ZA […], rHuPH20 10000 U/mL, 100 mL over 16 min, time 10 h
  Zoledronic Acid Serum Concentration: BLQ (below assay limit of quantification (2.0 ng/mL))
Pig 66, Study Group 3, SC, ZA […], rHuPH20 10000 U/mL, 100 mL over 16 min, time 24 h
  Zoledronic Acid Serum Concentration: BLQ (below assay limit of quantification (2.0 ng/mL))
Pig 66, Study Group 3, SC, ZA […], rHuPH20 10000 U/mL, 100 mL over 16 min, time 48 h
  Zoledronic Acid Serum Concentration: BLQ (below assay limit of quantification (2.0 ng/mL))
Pig 66, Study Group 3, SC, ZA […], rHuPH20 10000 U/mL, 100 mL over 16 min, time 72 h
  Zoledronic Acid Serum Concentration: BLQ (below assay limit of quantification (2.0 ng/mL))
Pig 66, Study Group 3, SC, ZA […], rHuPH20 10000 U/mL, 100 mL over 16 min, time […]
  Zoledronic Acid Serum Concentration: BLQ (below assay limit of quantification (2.0 ng/mL))
Pig 68, Study Group 3, SC, ZA […], rHuPH20 10000 U/mL, 10 mL over 1.6 min, time 8 h
  Zoledronic Acid Serum Concentration: BLQ (below assay limit of quantification (2.0 ng/mL))
Pig 68, Study Group 3, SC, ZA […], rHuPH20 10000 U/mL, 10 mL over 1.6 min, time 10 h
  Zoledronic Acid Serum Concentration: BLQ (below assay limit of quantification (2.0 ng/mL))
Pig 68, Study Group 3, SC, ZA […], rHuPH20 10000 U/mL, 10 mL over 1.6 min, time 24 h
  Zoledronic Acid Serum Concentration: BLQ (below assay limit of quantification (2.0 ng/mL))
Pig 68, Study Group 3, SC, ZA […], rHuPH20 10000 U/mL, 10 mL over 1.6 min, time 48 h
  Zoledronic Acid Serum Concentration: BLQ (below assay limit of quantification (2.0 ng/mL))
Pig 68, Study Group 3, SC, ZA […], rHuPH20 10000 U/mL, 10 mL over 1.6 min, time 72 h
  Zoledronic Acid Serum Concentration: BLQ (below assay limit of quantification (2.0 ng/mL))
Pig 68, Study Group 3, SC, ZA […], rHuPH20 10000 U/mL, 10 mL over 1.6 min, time […]
  Zoledronic Acid Serum Concentration: BLQ (below assay limit of quantification (2.0 ng/mL))
pig, ZA […] 20-min IV infusion, individual pigs 57, 61, 67
  T½ λz: 46.8 min
